Data published in patent US20240083885A1, “COMPOSITIONS AND METHODS FOR INHIBITING M PRO PROTEASE ACTIVITY AND FOR PREVENTING AND TREATING SARS-COV-2 INFECTION” (priority 2020, published 2024).
Like-named read-outs stand apart in the source and are kept apart here.

Assays:
SARS-CoV-2 M^pro = SARS-CoV-2 M^pro (Severe acute respiratory syndrome coronavirus 2 (2019-nCoV) (SARS-CoV-2), UniProt P0DTD1); experiment: biochemical
in vitro [1] = settings: African green monkey
in vitro [2] = settings: human, CC50 in Calu-3 cells
SARS-CoV-2 = experiment: microbe, parasite or virus in culture; assay type: cell-based
Vero E6 cells = experiment: Cytotoxicity in Vero E6 cells (neutral red uptake); settings: read-out: CC50 in Vero E6 cells
[3] = read-out: SARS-COV-2 main protease enzymatic inhibition IC50
[4] = read-out: IC50 against SARS-CoV-2 M^pro
[5] = Severe acute respiratory syndrome coronavirus 2, Vero C1008; read-out: antiviral EC50 against SARS-CoV-2 in Vero E6 cells
[6] = read-out: SARS-CoV-2 M^pro IC50
[7] = Severe acute respiratory syndrome coronavirus 2, Vero C1008; Vero E6 cells, immunofluorescence assay; read-out: SARS-CoV-2 antiviral assay EC50
[8] = Severe acute respiratory syndrome coronavirus 2, Vero C1008; read-out: SARS-COV-2 antiviral activity using immunofluorescence assay EC50

Q: With `O=C(NC1CCCC1)C(c1cccnc1)N(C(=O)c1c[nH]cn1)c1ccc(-c2ccccc2)cc1` (centres unmarked) [Jun9-3-5] as the compound, how does the IC50 (SARS-CoV-2 M^pro; [3]) read?
A: 7.27 µM

Q: For `C=C(Cl)C(=O)N(c1ccc(-c2ccccc2)cc1)C(C(=O)N[C@@H](C)c1ccccc1)c1cccnc1` (stereo partly drawn) [Jun10-38-2, N-{[1,1′-biphenyl]-4-yl}-2-chloro-N-({[(1S)-1-phenylethyl]carbamoyl}(pyridin-3-yl)methyl)prop-2-enamide], which IC50 (SARS-CoV-2 M^pro; [4]) is on record?
A: 4.22 µM

Q: With `O=C(NC1CCCCC1)C(c1cccnc1)N(C(=O)CCl)c1ccc(-c2ccccc2)cc1` (centres unmarked) [Jun9-55-2, N-([1,1′-biphenyl]-4-yl)-2-chloro-N-(2-(cyclohexylamino)-2-oxo-1-(pyridin-3-yl)ethyl)acetamide] as the compound, how does the CC50 at 5 days (in vitro [1]; CC50 in Vero E6 cells) read?
A: < 11 µM

Q: And the CC50 at 5 days (in vitro [2])?
A: < 2 µM

Q: Which IC50 (SARS-CoV-2 M^pro; [3]) does the source give for `CC(C)(C)c1ccc(N(C(=O)c2ccco2)C(C(=O)NC2CC2)c2cccnc2)cc1` (centres unmarked) [Jun8-58-2] here?
A: 3.86 µM

Q: Which IC50 (SARS-CoV-2 M^pro; [3]) does the source give for `O=C(NCC(c1ccccc1)c1ccccc1)C(c1cccnc1)N(C(=O)c1ccco1)c1ccc(-c2ccccc2)cc1` (centres unmarked) [Jun9-5-3] here?
A: 1.48 µM

Q: For `C[C@H](NC(=O)C(c1cccnc1)N(C(=O)c1c[nH]cn1)c1ccc(-c2ccccc2)cc1)c1ccccc1` (some centres unmarked) [Jun8-90-3], which EC50 (SARS-CoV-2; [5]) is on record?
A: 0.82 to 4.54 µM

Q: And the CC50 at 5 days (in vitro [1]; Vero E6 Cytotoxicity CC50 (μM))?
A: 129 ± 25.1 µM

Q: What about the CC50 (Vero E6 cells) of the same compound?
A: > 100 µM

Q: And the IC50 (SARS-CoV-2 M^pro; [6])?
A: 0.96 ± 0.09 µM

Q: What does the source list for `C[C@H](NC(=O)C(c1cccnc1)N(C(=O)c1ccco1)c1ccc(-n2cccc2)cc1)c1ccccc1` (some centres unmarked) [Jun8-76-5]?
A: Selectivity index SI CC50/EC50 (SARS-CoV-2): >115.6; EC50 (SARS-CoV-2; [7]): 1.73 ± 0.19 µM; EC50 (SARS-CoV-2; [8]): 1.9 µM; EC50 (SARS-CoV-2; [5]): 0.82 to 4.54 µM; CC50 at 5 days (in vitro [1]; Vero E6 Cytotoxicity CC50 (μM)): > 200 µM; CC50 (Vero E6 cells): > 100 µM; IC50 (SARS-CoV-2 M^pro; IC50 against SARS-CoV-2 M^pro): < 3 µM; IC50 (SARS-CoV-2 M^pro; [3]): 0.94 µM; IC50 (SARS-CoV-2 M^pro; [6]): 0.94 ± 0.33 µM

Q: Which results are given for `C[C@H](NC(=O)C(c1cccnc1)N(C(=O)c1ccco1)c1ccc(-c2ccccc2)cc1)c1ccccc1` (single isomer, unassigned) [Compound 23S]?
A: IC50 (SARS-CoV-2 M^pro; IC50 against SARS-CoV-2 M^pro): > 10 µM; IC50 (SARS-CoV-2 M^pro; SARS-CoV-2 M^pro IC50 (μM)): > 10 µM

Q: Which IC50 (SARS-CoV-2 M^pro; IC50 against SARS-CoV-2 M^pro) does the source give for `C[C@@H](CCc1ccccc1)NC(=O)[C@H](c1cccnc1)N(C(=O)C(Cl)Cl)c1ccc(-c2ccccc2)cc1` [Jun9-90-4S, N-([1,1′-biphenyl]-4-yl)-2,2-dichloro-N-((S)-2-oxo-2-(((S)-4-phenylbutan-2-yl)amino)-1-(pyridin-3-yl)ethyl)acetamide] here?
A: > 20 µM

Q: For `C[C@H](NC(=O)C(c1cccnc1)N(C(=O)c1ccco1)c1ccc([Si](C)(C)C)cc1)c1ccccc1` (some centres unmarked) [Jun8-75-2], which EC50 (SARS-CoV-2; Severe acute respiratory syndrome coronavirus 2, Vero C1008, read-out: SARS-COV-2 antiviral activity using immunofluorescence assay EC50) is on record?
A: 8.84 µM

Q: What about the IC50 (SARS-CoV-2 M^pro; [3]) of the same compound?
A: 1.97 µM

Q: With `COc1ccc(NC(=O)C(c2cccnc2)N(C(=O)c2ccco2)c2ccc(C(C)(C)C)cc2)cc1` (centres unmarked) [Jun9-88-4] as the compound, how does the IC50 (SARS-CoV-2 M^pro; [3]) read?
A: 7.49 µM

Q: Which “Selectivity index SI CC50/EC50” value (SARS-CoV-2) does the source give for `O=C(NCCCc1ccccc1)C(c1cccnc1)N(C(=O)c1ccco1)c1ccc(-c2ccccc2)cc1` (centres unmarked) [Jun9-12-2] here?
A: >98.0

Q: What about the EC50 (SARS-CoV-2; [7]) of the same compound?
A: 2.04 ± 1.08 µM

Q: And the EC50 (SARS-CoV-2; [8])?
A: 2.13 µM

Q: What about the EC50 (SARS-CoV-2; [5]) of the same compound?
A: 0.82 to 4.54 µM

Q: What about the CC50 at 5 days (in vitro [1]; Vero E6 Cytotoxicity CC50 (μM)) of the same compound?
A: > 200 µM

Q: What about the CC50 (Vero E6 cells) of the same compound?
A: > 100 µM

Q: What about the IC50 (SARS-CoV-2 M^pro; [3]) of the same compound?
A: 1.06 µM

Q: Which IC50 (SARS-CoV-2 M^pro; [4]) does the source give for `C[C@H](NC(=O)C(c1cccnc1)N(C(=O)c1ccno1)c1ccc(C2CCCCC2)cc1)c1ccccc1` (some centres unmarked) [Compound 36] here?
A: 0.81 ± 0.24 µM

Q: Which CC50 (Vero E6 cells) does the source give for `CC(C)(C)NC(=O)C(c1cnccn1)N(C(=O)c1ccco1)c1ccc(C(C)(C)C)cc1` (centres unmarked) [Compound 27] here?
A: > 100 µM

Q: With `C[C@H](NC(=O)C(c1cccnc1)N(C(=O)c1ccco1)c1ccc(C(C)(C)C)cc1)c1ccccc1` (some centres unmarked) [Jun8-56-1] as the compound, how does the EC50 (SARS-CoV-2; [8]) read?
A: 17.2 µM

Q: And the IC50 (SARS-CoV-2 M^pro; [3])?
A: 5.7 µM

Q: Which EC50 (SARS-CoV-2; [7]) does the source give for `C[C@H](NC(=O)C(c1cccnc1)N(C(=O)c1ccco1)c1ccc(-c2ccccc2)cc1)c1ccccc1` (some centres unmarked) [Jun8-76-3] here?
A: 1.61 ± 0.29 µM

Q: What about the EC50 (SARS-CoV-2; [8]) of the same compound?
A: 1.83 µM

Q: What about the EC50 (SARS-CoV-2; [5]) of the same compound?
A: 0.82 to 4.54 µM

Q: And the CC50 at 5 days (in vitro [1]; Vero E6 Cytotoxicity CC50 (μM))?
A: > 200 µM

Q: What about the CC50 (Vero E6 cells) of the same compound?
A: > 100 µM

Q: What about the IC50 (SARS-CoV-2 M^pro; IC50 against SARS-CoV-2 M^pro) of the same compound?
A: < 3 µM

Q: And the IC50 (SARS-CoV-2 M^pro; SARS-COV-2 main protease enzymatic inhibition IC50)?
A: 0.31 µM

Q: What about the IC50 (SARS-CoV-2 M^pro; SARS-CoV-2 M^pro IC50 (μM)) of the same compound?
A: 0.31 ± 0.13 µM

Q: With `O=C(NC1CCCCC1)C(c1cccnc1)N(C(=O)c1c[nH]cn1)c1ccc(-c2ccccc2)cc1` (centres unmarked) [Jun9-4-2] as the compound, how does the IC50 (SARS-CoV-2 M^pro; [3]) read?
A: 5.82 µM

Q: Which IC50 (SARS-CoV-2 M^pro; [3]) does the source give for `CC(C)NC(=O)C(c1cccnc1)N(C(=O)c1ccco1)c1ccc(C(C)(C)C)cc1` (centres unmarked) [Jun8-88-1] here?
A: 5.37 µM

Q: What does the source list for `CC(C)(C)c1ccc(N(C(=O)c2ccco2)C(C(=O)NC2CCCC2)c2cccnc2)cc1` (centres unmarked) [Jun8-88-2]?
A: EC50 (SARS-CoV-2; [8]): 12.9 µM; IC50 (SARS-CoV-2 M^pro; [3]): 2.51 µM

Q: With `CC(C)(C)NC(=O)C(c1cnccn1)N(C(=O)c1ccco1)c1ccc(C(C)(C)C)cc1` (centres unmarked) [Jun9-17-2] as the compound, how does the IC50 (SARS-CoV-2 M^pro; [3]) read?
A: 4.93 µM

Q: Which IC50 (SARS-CoV-2 M^pro; [3]) does the source give for `C[C@H](NC(=O)C(c1cccnc1)N(C(=O)c1ccco1)c1ccc(-c2ccccn2)cc1)c1ccccc1` (some centres unmarked) [Jun9-6-4] here?
A: 1.81 µM
